Test results taken from patent US12691095B2, “Modulators of TNF-alpha activity” (Forward Therapeutics, Inc., priority 2024, dated 2026).

Molecular target: T1, TNF-α (Homo sapiens, UniProt P01375)
T1 construct: purchased R&D 210-TA-020/CF
Assay: TNF-α Induced HEK Blue Cellular Assay
Assay type: cell-based
Conditions: HEK Blue TNFα reporter cells stimulated with TNF-α, 24 hrs, secreted alkaline phosphatase (QUANTI-Blue, 620 nm)
Procedure: (§1) Test articles were diluted in DMSO and serially diluted into 384 well assay plate (Corning 3765), at final concentrations ranging from […] to 0.5 nM. HEK Blue™ TNFα reporter cells were added at a final density of 10,000 cell per well in assay media [DMEM (Gibco, cat #21063-029), 10% fetal bovine serum (ExcelBio, cat #FND500), 1% Penicillin-Streptomycin (Solarbio, cat #P1400-100]. TNF-α (R&D 210-TA-020/CF) was then added to the assay plate at a final concentration of […]. This plate was then incubated for 24 hrs at 37° C. and 5% CO2. Secreted alkaline phosphatase expression was then measured using QUANTI- Blue™ (Invivogen), according to manufacturer instructions and read on an Envision microplate reader at 620 nm.
Inhibition data for test compound over a range of concentration was plotted as percentage inhibition of the test compound (100%=maximum inhibition). IC50 values were determined after correcting for background [(sample read-mean of low control)/(mean of high control-mean of low control)] where by the low control is DMSO without stimulation and high control is DMSO with stimulation. The IC50 is defined as the concentration of test compound which produces 50% inhibition and was quantified using the 4 parameter logistic equation to fit the data.

T1 sequence (P01375 77-233 limits assumed): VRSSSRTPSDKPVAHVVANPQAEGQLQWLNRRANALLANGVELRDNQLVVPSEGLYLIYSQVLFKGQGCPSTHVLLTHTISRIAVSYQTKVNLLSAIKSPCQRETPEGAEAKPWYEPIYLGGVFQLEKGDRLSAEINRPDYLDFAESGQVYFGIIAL

IC50, ≤ 100 nM:
[2H]C([2H])([2H])N1C(=O)c2cccc(Cl)c2[C@H]2C[C@@H]1c1nc3ccc(-c4ccc(P(C)(C)=O)cc4)cc3n12 [Example 7, (7R,14R)-1-chloro-11-(4-(dimethylphosphoryl)phenyl)-6-(methyl-d3)-6,7-dihydro-7,14-methanobenzo[f]benzo[4,5]imidazo[1,2-a][1,4]diazocin-5(14H)-one]
[2H]C([2H])([2H])N1C(=O)c2cccc(Cl)c2[C@H]2C[C@@H]1c1nc3ccc(-c4ccc(P(C)(C)=O)cc4F)cc3n12 [Example 8, (7R,14R)-1-chloro-11-(4-(dimethylphosphoryl)-2-fluorophenyl)-6-(methyl-d3)-6,7-dihydro-7,14-methanobenzo[f]benzo[4,5]imidazo[1,2-a][1,4]diazocin-5(14H)-one]
[2H]C([2H])([2H])N1C(=O)c2cccc(F)c2[C@H]2C[C@@H]1c1nc3ccc(-c4ccc(P(C)(C)=O)c(F)c4)cc3n12 [Example 9, (7R,14R)-11-(4-(dimethylphosphoryl)-3-fluorophenyl)-1-fluoro-6-(methyl-d3)-6,7-dihydro-7,14-methanobenzo[f]benzo[4,5]imidazo[1,2-a][1,4]diazocin-5(14H)-one]
[2H]C([2H])([2H])C([2H])([2H])N1C(=O)c2cccc(Cl)c2[C@H]2C[C@@H]1c1nc3ccc(-c4ccc(P(C)(C)=O)c(F)c4)cc3n12 [Example 10, (7R,14R)-1-chloro-11-(4-(dimethylphosphoryl)-3-fluorophenyl)-6-(ethyl-d5)-6,7-dihydro-7,14-methanobenzo[f]benzo[4,5]imidazo[1,2-a][1,4]diazocin-5(14H)-one]
CCN1C(=O)c2cccc(Cl)c2[C@H]2C[C@@H]1c1nc3ccc(-c4ccc(P(C)(C)=O)c(F)c4)cc3n12 [Example 11, (7R,14R)-1-chloro-11-(4-(dimethylphosphoryl)-3-fluorophenyl)-6-ethyl-6,7-dihydro-7,14-methanobenzo[f]benzo[4,5]imidazo[1,2-a][1,4]diazocin-5(14H)-one]
[2H]C([2H])([2H])N1C(=O)c2cccc(F)c2[C@H]2C[C@@H]1c1nc3ccc(-c4cc(F)c(P(C)(C)=O)cc4F)cc3n12 [Example 12, (7R,14R)-11-(4-(dimethylphosphoryl)-2,5-difluorophenyl)-1-fluoro-6-(methyl-d3)-6,7-dihydro-7,14-methanobenzo[f]benzo[4,5]imidazo[1,2-a][1,4]diazocin-5(14H)-one]

Molecular target: T1, TNF-α
Assay: TNF-α Induced THP 1 dual Cellular Assay
Assay type: cell-based
Conditions: THP1 dual cell reporter cells stimulated with TNF-α, 24 hrs, secreted alkaline phosphatase (QUANTI-Blue, 620 nm)
Procedure: as §1, with “THP1 dual cell” for “HEK Blue™ TNFα”, “QUANTI-Blue™” for “QUANTI- Blue™”
Inhibition data for test compound over a range of concentration was plotted as percentage inhibition of the test compound (100%=maximum inhibition). IC50 values were determined after correcting for background [(sample read-mean of low control)/(mean of high control-mean of low control)] whereby the low control is DMSO without stimulation and high control is DMSO with stimulation. The IC50 is defined as the concentration of test compound which produces 50% inhibition and was quantified using the 4-parameter logistic equation to fit the data.

IC50, ≤ 100 nM:
[2H]C([2H])([2H])N1C(=O)c2cccc(F)c2[C@H]2C[C@@H]1c1nc3ccc(-c4cc(F)c(P(C)(C)=O)cc4F)cc3n12 [Example 12, (7R,14R)-11-(4-(dimethylphosphoryl)-2,5-difluorophenyl)-1-fluoro-6-(methyl-d3)-6,7-dihydro-7,14-methanobenzo[f]benzo[4,5]imidazo[1,2-a][1,4]diazocin-5(14H)-one]
